The values below come from patent publication US9790235B2, “MK2 inhibitors and uses thereof” (Celgene CAR LLC, priority 2014, dated 2017).

The target in test [1] is p38α activated, mitogen-activated protein kinase-activated protein kinase 2 (MAPKAP-K2 or MK2) enzyme (Homo sapiens (Human), UniProt P49137). In words: MK2 Omnia continuous-read kinase assay for compound potency. Format: biochemical. Particulars: [MK-2]=0.4 nM, [ATP]=10 μM, [ST3-Sox]=10 μM; read-out: MK2 IC50. From the text:
Mitogen-Activated Protein Kinase-Activated Protein Kinase 2 Omnia® Assay for Compound Potency Assessment:
The protocol below describes a continuous-read kinase assay optimized to measure potency of compounds against p38α activated, mitogen-activated protein kinase-activated protein kinase 2 (MAPKAP-K2 or MK2) enzyme. Further details of this assay are described by Life Technologies, Carlsbad, Calif. on their website at the following URL: http://tools.lifetechnologies.com/content/sfs/manuals/omnia_kinase_assay_man.pdf.
[Reagent] used: • [MK-2]=0.4 nM, • [ATP]=10 μM and • [ST3-Sox]=10 μM (ATP^appKM=10 μM)
Kinase reactions were started with the addition of 45 μL of the ATP-peptide substrate S/T3-Sox mix and monitored every 71 seconds for 120 minutes at λex360/λem485 in a Synergy H4 plate reader from BioTek (Winooski, Vt.) at room temperature.
Background signals from the no enzyme control wells were subtracted from all progress curves. The initial linear portions of the net progress curves were fit according to a linear equation to yield the slope and percentage of inhibition (% inhibition) at each compound concentration. The net progress curves obtained during the first two hours of reactions were also fit according to an ascending single-exponential equation (Eq. 1) to yield kobs values at each compound concentration. Plots of % Inhibition versus inhibitor concentrations were fit according to a dose-response equation (Eq. 2) to generate IC50 and Hill slope values while plots of kobs versus inhibitor concentration were fit according to Equation 3 (Eq. 3) to generate apparent kinact/KI values using the GraphPad PRISM software (Version 6.00; GraphPad San Diego, Calif.).
[formula] where F is the fluorescence intensity from the plate reader, V0 is a constant reflecting the relationship between the instrument readout and product concentration, t is time, e is Euler's number, and kobs is the observed inactivation rate constant.
[formula] where % Inhibition is percentage of inhibition, IC50 is half maximal inhibitory concentration, [I] is the inhibitor concentration, and n is the Hill slope.

For test [2], the target named is T1, MK2 (Homo sapiens (Human), UniProt P49137). In words: MK2 cellular assay, total and phospho-Hsp27 (Serine 78) by MSD ELISA (Thp1). Particulars: Thp-1 cells, 1 hour compound, 50 ng/mL LPS 45 minutes, p-HSP27 (Ser78)/total HSP27; read-out: pHSP27 signaling EC50. Type of test: cell-based. Here is the method:
MK2 Cellular Assay—Detection of Total and Phospho-Hsp27 (Serine 78) by MSD ELISA (Thp1)
Compounds of the invention were assayed in Thp-1 human acute monocytic leukemia cells to measure inhibition of MK2 activity. Thp-1 cells were grown in culture medium containing RPMI/10% FBS (fetal bovine serum)/0.05 mM 2-mercaptoethanol. 72 hours prior to the assay, 8×10^4 cells per well were plated in a 96 well flat bottom plate along with 10 ng/mL phorbol 12-myristate 13-acetate (PMA). Cells were cultured in an incubator at 37° C. until needed for the assay. Cell plate media was replaced with culture media just prior to assay while compound dilutions were being made.
Stock solutions of test compound, 1 mM in DMSO, were prepared. 0.9 μl of test compound was added to 300 μl cell media for a starting concentration of 3000 nM. […] Cell plate media was discarded, followed by addition of 100 μl of the compound containing media. The resulting preparation was incubated at 37° C. for 1 hour.
Test compound-containing cell assay media was removed and the cells were washed once with cell assay media. Cell assay media containing 50 ng/mL LPS (lipopolysaccharide) was added to the each well and incubated for 45 minutes. Following LPS incubation, the cells were washed once with PBS (phosphate-buffered saline) and lysed with 60 μl Cell Extraction Buffer (Invitrogen #FNN0011) plus protease and phosphatase inhibitors. The plate was then stored at −80° C. until further analysis.
The MULTI-SPOT Phospho(Ser78)/Total HSP27 ELISA Assay kit was purchased from Meso Scale […] (MSD; catalog #K15128D). […] The pre-coated MSD plate was blocked with 150 μL/well of 3% BSA in MSD wash buffer. The preparation was placed on a shaker at room temperature for an hour. While the ELISA plate was blocked, the cell assay plate stored at −80° C. was placed on a shaker at 4° C. for 1 hour to thaw.
The blocked MSD plate was washed on a plate washer, tapping out the last bit of wash solution, followed by addition of 30 μl of the lysate from the cell assay plate. The preparation was covered and incubated for 1 hour at room temperature. The lysate was removed, the plate was washed 3 times on a plate washer and the last bit of wash buffer was tapped out and replaced with 25 μl/well detection antibody (anti-total HSP27 conjugated with an electrochemiluminescent compound, MSD SULFO-TAG label, supplied in kit) made in 1% BSA/MSD wash buffer. The plate was incubated for 1 hour at room temperature on a shaker, followed by 3 washes. The last bit of wash buffer was tapped out. 150 μl/well 1×MSD read buffer was added (4× read buffer supplied with kit) and the plate was analyzed on the MSD SECTOR® Imager for analysis. The SECTOR® Imager measures intensity of emitted light to provide a quantitative measure of phosphorylated HSP27 (Ser78) and total HSP27 present in the sample. The relative percent phosphoprotein in a sample is calculated by dividing the Phospho-HSP27 signal intensity over the total HSP27 signal intensity measured in each well.

For test [3], the target named is T1, MK2.
Protocol: Aliquots of the resulting mixture (6 μL each) were diluted with 0.2% trifluoroacetic acid (TFA, 10 μL) prior to micro C4 ZipTipping directly onto the MALDI target using sinapinic acid as the desorption matrix (10 mg/ml in 0.1% TFA:acetonitrile 50:50, v/v). The centroid mass of the target protein in the control sample was compared with the centroid mass of the target protein incubated with compound. A shift in the centroid mass of the treated protein compared to the untreated protein was divided by the molecular weight of the compound. This number corresponds to the percentage of modified protein (a measure of the proportion of total target protein covalently bound to the test compound) after one hour incubation.
3 μL of magnetic Ni-NTA beads were added to the 6 μL aliquots of sample, washed, eluted with 0.2% trifluoroacetic acid (TFA, 2 μL), and spotted directly onto the MALDI target using sinapinic acid as the desorption matrix (10 mg/ml in 0.1% TFA:acetonitrile 50:50, v/v). The centroid mass of the target protein in the control sample was compared with the centroid mass of the target protein incubated with compound. A shift in the centroid mass of the treated protein compared to the untreated protein was divided by the molecular weight of the compound. This number corresponds to the percentage of modified protein (a measure of the proportion of total target protein covalently bound to the test compound) after one hour incubation.
Where [4] appears, read: percentage of modified protein after 60 minutes at room temperature, 10-fold excess of compound, MALDI (I-1 to I-50), magnetic bead MALDI (I-51 to I-129).

Like-named read-outs stand apart in the source and are kept apart here.
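For Mass Modification in this document: covalent binding read from centroid mass shift of compound-treated versus untreated intact MK2, shift divided by compound molecular weight, giving fraction of total protein bound.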

p38α activated, mitogen-activated protein kinase-activated protein kinase 2 (MAPKAP-K2 or MK2) enzyme, sequence (P49137 whole entry): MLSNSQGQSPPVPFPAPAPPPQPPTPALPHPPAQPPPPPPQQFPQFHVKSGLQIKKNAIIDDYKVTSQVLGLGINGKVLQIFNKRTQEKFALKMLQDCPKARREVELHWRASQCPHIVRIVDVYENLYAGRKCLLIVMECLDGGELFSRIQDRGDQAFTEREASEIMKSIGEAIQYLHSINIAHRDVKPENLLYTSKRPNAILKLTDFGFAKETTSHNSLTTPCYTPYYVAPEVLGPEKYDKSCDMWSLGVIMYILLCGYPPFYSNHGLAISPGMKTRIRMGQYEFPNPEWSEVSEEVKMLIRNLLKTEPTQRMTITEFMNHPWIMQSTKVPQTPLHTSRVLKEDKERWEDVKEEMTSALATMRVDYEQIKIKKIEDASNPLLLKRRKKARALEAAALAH
T1 sequence (P49137 whole entry): as above

In the case of `C[C@@H]1CNc2c(sc3ccc4nc(Oc5nc(Cl)ncc5CN5CCC[C@@H]5C)ccc4c23)C(=O)N1` [I-101], the IC50 in test [1] was < 100 nM. Moreover, the EC50 on MK2 [2] was < 100 nM.
`CCOC(=O)c1cnc(Nc2ccc3c(ccc4sc5c(c43)NC[C@@H](C)NC5=O)n2)nc1Cl` [I-23, (R)-ethyl 4-chloro-2-((10-methyl-8-oxo-9,10,11,12-tetrahydro-8H-[1, 4]diazepino[5′,6′:4,5]thieno[3,2-f]quinolin-3-yl)amino)pyrimidine-5-carboxylate]: in test [1], the IC50 is < 100 nM. Besides, the “Mass Modification” value at MK2 [3] (setting [4]) is “G (mass modification ≦30%)”.
Regarding `C[C@@H]1CNc2c(sc3ccc4nc(Nc5cc(F)nc(OCCN6CCN(C)CC6)n5)ccc4c23)C(=O)N1` [I-48, (R)-3-((6-fluoro-2-(2-(4-methylpiperazin-1-yl)ethoxy)pyrimidin-4-yl)amino)-10-methyl-9,10,11,12-tetrahydro-8H-[1,4]diazepino[5′,6′:4,5]thieno[3,2-f]quinolin-8-one], the IC50 in test [1] is < 100 nM. At MK2 [2], the EC50 was > 1000 nM.
`COCCOc1cc(Cl)nc(Nc2ccc3c(ccc4sc5c(c43)NC[C@@H](C)NC5=O)n2)n1` [I-69, (R)-3-((4-chloro-6-(2-methoxyethoxy)pyrimidin-2-yl)amino)-10-methyl-9,10,11,12-tetrahydro-8H-[1,4]diazepino[5′,6′:4,5]thieno[3,2-f]quinolin-8-one]: the IC50 in test [1] was < 100 nM. Further, the “Mass Modification” value on MK2 [3] (setting [4]) was “G (mass modification ≦30%)”.
In the case of `C[C@@H]1CNc2c(sc3ccc4nc(Oc5nc(Cl)ncc5CN5CCC[C@H]5C)ccc4c23)C(=O)N1` [I-99, (R)-3-((2-chloro-5-(((R)-2-methylpyrrolidin-1-yl)methyl)pyrimidin-4-yl)oxy)-10-methyl-9,10,11,12-tetrahydro-8H-[1,4]diazepino[5′,6′:4,5]thieno[3,2-f]quinolin-8-one], in test [1], the IC50 is < 100 nM. At MK2 [2], the EC50 was < 100 nM.
On to `C[C@@H]1CNc2c(sc3ccc4nc(Oc5nc(Cl)ncc5-c5cccnc5)ccc4c23)C(=O)N1` [I-123, (R)-3-((2-chloro-5-(pyridin-3-yl)pyrimidin-4-yl)oxy)-10-methyl-9,10,11,12-tetrahydro-8H-[1,4]diazepino[5′,6′:4,5]thieno[3,2-f]quinolin-8-one], for which the IC50 in test [1] is < 100 nM. For the same compound, the EC50 at MK2 [2] was < 100 nM.
As to `CN(C)C[C@@H]1CNc2c(sc3ccc4nc(Nc5cc(F)ncn5)ccc4c23)C(=O)N1` [I-31, (S)-10-((dimethylamino)methyl)-3-((6-fluoropyrimidin-4-yl)amino)-9,10,11,12-tetrahydro-8H-[1,4]diazepino[5′,6′:4,5]thieno[3,2-f]quinolin-8-one], the EC50 at MK2 [2] was > 1000 nM. Further, on MK2 [3] (setting [4]), the “Mass Modification” value is “F (mass modification of 31-69%)”.
Take `C[C@@H]1CNc2c(sc3ccc4nc(Oc5cc(CNC(C)(C)C)nc(Cl)n5)ccc4c23)C(=O)N1` [I-117, (R)-3-((6-((tert-butylamino)methyl)-2-chloropyrimidin-4-yl)oxy)-10-methyl-9,10,11,12-tetrahydro-8H-[1,4]diazepino[5′,6′:4,5]thieno[3,2-f]quinolin-8-one]: the EC50 at MK2 [2] is < 100 nM.
Turning to `CC(C)CN(Cc1cnc(Cl)nc1Oc1ccc2c(ccc3sc4c(c32)NC[C@@H](C)NC4=O)n1)CC(C)C` [I-88, (R)-3-((2-chloro-5-((diisobutylamino)methyl)pyrimidin-4-yl)oxy)-10-methyl-9,10,11,12-tetrahydro-8H-[1,4]diazepino[5′,6′:4,5]thieno[3,2-f]quinolin-8-one], in test [1], the IC50 was > 1000 nM. For the same compound, at MK2 [3] (setting [4]), the “Mass Modification” value was “F (mass modification of 31-69%)”.
Regarding `C[C@@H]1CNc2c(sc3ccc4nc(Nc5nc(Cl)ncc5C(=O)NC5COC5)ccc4c23)C(=O)N1` [I-20, (R)-2-chloro-4-((10-methyl-8-oxo-9,10,11,12-tetrahydro-8H-[1,4]diazepino[5′,6′:4,5]thieno[3,2-f]quinolin-3-yl)amino)-N-(oxetan-3-yl)pyrimidine-5-carboxamide], on MK2 [2], the EC50 was > 1000 nM. In addition, on MK2 [3] (setting [4]), the “Mass Modification” value is “G (mass modification ≦30%)”.
In the case of `CCOC(=O)c1cnc(SC)nc1Nc1ccc2c(ccc3sc4c(c32)NC[C@@H](C)NC4=O)n1` [I-12, (R)-ethyl 4-((10-methyl-8-oxo-9,10,11,12-tetrahydro-8H-[1,4]diazepino[5′,6′:4,5]thieno[3,2-f]quinolin-3-yl)amino)-2-(methylthio)pyrimidine-5-carboxylate], in test [1], the IC50 was in the range of 501 to 999 nM. The “Mass Modification” value at MK2 [3] was “G (key: E: mass modification of ≧70%; F: mass modification of 31-69%; G: mass modification ≦30%)”.
For `CO[C@H]1CCCN(Cc2cnc(Cl)nc2Oc2ccc3c(ccc4sc5c(c43)NC[C@@H](C)NC5=O)n2)C1` [I-106, (R)-3-((2-chloro-5-(((S)-3-methoxypiperidin-1-yl)methyl)pyrimidin-4-yl)oxy)-10-methyl-9,10,11,12-tetrahydro-8H-[1,4]diazepino[5′,6′:4,5]thieno[3,2-f]quinolin-8-one], the IC50 in test [1] lay within 101 to 500 nM. Moreover, the EC50 at MK2 [2] was < 100 nM.
Regarding `C[C@@H]1CNc2c(sc3ccc4nc(Oc5nc(Cl)nc6c5CCCC6)ccc4c23)C(=O)N1` [I-109, (R)-3-((2-chloro-5,6,7,8-tetrahydroquinazolin-4-yl)oxy)-10-methyl-9,10,11,12-tetrahydro-8H-[1,4]diazepino[5′,6′:4,5]thieno[3,2-f]quinolin-8-one], the IC50 in test [1] is 101 to 500 nM.
As for `C[C@@H]1CNc2c(sc3ccc4nc(Nc5nc(Cl)ncc5C(=O)NC5CC5)ccc4c23)C(=O)N1` [I-21, (R)-2-chloro-N-cyclopropyl-4-((10-methyl-8-oxo-9,10,11,12-tetrahydro-8H-[1,4]diazepino[5′,6′:4,5]thieno[3,2-f]quinolin-3-yl)amino)pyrimidine-5-carboxamide], the EC50 at MK2 [2] is > 1000 nM. Further, the “Mass Modification” value on MK2 [3] (setting [4]) was “G (mass modification ≦30%)”.
In the case of `C[C@@H]1CNc2c(sc3ccc4nc(Nc5nccc(Cl)n5)ccc4c23)C(=O)N1` [I-13, (R)-3-((4-chloropyrimidin-2-yl)amino)-10-methyl-9,10,11,12-tetrahydro-8H-[1,4]diazepino[5′,6′:4,5]thieno[3,2-f]quinolin-8-one], the EC50 at MK2 [2] was > 1000 nM. Further, the “Mass Modification” value at MK2 [3] is listed as “G (key: E: mass modification of ≧70%; F: mass modification of 31-69%; G: mass modification ≦30%)”.

A word on the IC50: it is the concentration at which inhibition is half-maximal. One may read the EC50 as the concentration giving half of the maximal effect.
